Measured values reported in paper PMC7144330, “2-Thiopyrimidine/chalcone hybrids: design, synthesis, ADMET prediction, and anticancer evaluation as STAT3/STAT5a inhibitors” (Journal of Enzyme Inhibition and Medicinal Chemistry, 2020).
Read-outs that look alike come from different tables or passages of the source.

Assays:
STAT3 [1] = tested on: STAT3; parameters: method as in PMID 20067773; details: myeloma cancer cells; read-out: EC50, inhibition of STAT3 function; cited from earlier work
STAT3 [2] = tested on: STAT3; parameters: method as in PMID 20067773; details: breast cancer cells; read-out: EC50, inhibition of STAT3 function; cited from earlier work
in vitro = details: human
MCF-7 = assay: MTT cytotoxic assay, breast MCF-7 cell line; format: cell-based, human; details: Homo sapiens, MCF7, read-out: (IC50 μM)±SD MCF-7
Description: (§1) To investigate cytotoxic activity of the final target compounds 9a–r, MTT assay was performed. Three different cell lines were used, leukaemia (K-562), breast (MCF-7) and colon (HT-29) cell lines. Cisplatin and erlotinib were the reference drugs used in this study.
(§2) All target compounds 9a–r were screened against three different cancer cell lines, leukaemia (K-562), breast (MCF-7), and colon (HT-29). MTT assay was used. Both cisplatin and erlotinib were used as the reference drugs. Cytotoxicity results are recorded in Table 1.

HT-29 = assay: MTT cytotoxic assay, colon HT-29 cell line; format: cell-based; details: Homo sapiens, read-out: (IC50 μM)±SD HT-29
Description: as §1, §2

STAT3 [3] = molecular target: T1, STAT3 (Homo sapiens, UniProt P40763); assay: TransAM STAT3 activation assay on nuclear extracts of treated cells; format: cell-based; details: 24 h, read-out: Inhibition IC50 (µM) STAT3
T1 construct: endogenous in cells; host or cells: K-562 and MCF-7 cells (nuclear extracts)
Description: (§3) Both K-562 and MCF-7 cell lines were seeded overnight in plates, then 10 µM of test compounds (9a and 9r for MCF-7 cells; 9d, 9f, and 9n for K-562 cells) or reference drug pacritinib was added for 24 h. A nuclear extract kit was used to extract nuclear fractions from treated cells using the manufacture’s procedure. STAT3 and STAT5a activations were analysed using the collected nuclear extracts (20 µg) through TransAM STAT3 and STAT5a activation assay guided by the manufacture’s protocol. The obtained results were expressed in the form of mean ± SD. Each experiment was done in triplicate.
(§4) Pacritinib, an inhibitor for both STAT3 and STAT5a[49] was used in this study as a reference drug.

STAT5a = molecular target: T2, STAT5a (Homo sapiens, UniProt P42229); assay: TransAM STAT5a activation assay on nuclear extracts of treated cells; format: cell-based; details: 24 h, read-out: Inhibition IC50 (µM) STAT5a
T2 construct: endogenous in cells; host or cells: K-562 and MCF-7 cells (nuclear extracts)
T2 sequence (P42229 1-794): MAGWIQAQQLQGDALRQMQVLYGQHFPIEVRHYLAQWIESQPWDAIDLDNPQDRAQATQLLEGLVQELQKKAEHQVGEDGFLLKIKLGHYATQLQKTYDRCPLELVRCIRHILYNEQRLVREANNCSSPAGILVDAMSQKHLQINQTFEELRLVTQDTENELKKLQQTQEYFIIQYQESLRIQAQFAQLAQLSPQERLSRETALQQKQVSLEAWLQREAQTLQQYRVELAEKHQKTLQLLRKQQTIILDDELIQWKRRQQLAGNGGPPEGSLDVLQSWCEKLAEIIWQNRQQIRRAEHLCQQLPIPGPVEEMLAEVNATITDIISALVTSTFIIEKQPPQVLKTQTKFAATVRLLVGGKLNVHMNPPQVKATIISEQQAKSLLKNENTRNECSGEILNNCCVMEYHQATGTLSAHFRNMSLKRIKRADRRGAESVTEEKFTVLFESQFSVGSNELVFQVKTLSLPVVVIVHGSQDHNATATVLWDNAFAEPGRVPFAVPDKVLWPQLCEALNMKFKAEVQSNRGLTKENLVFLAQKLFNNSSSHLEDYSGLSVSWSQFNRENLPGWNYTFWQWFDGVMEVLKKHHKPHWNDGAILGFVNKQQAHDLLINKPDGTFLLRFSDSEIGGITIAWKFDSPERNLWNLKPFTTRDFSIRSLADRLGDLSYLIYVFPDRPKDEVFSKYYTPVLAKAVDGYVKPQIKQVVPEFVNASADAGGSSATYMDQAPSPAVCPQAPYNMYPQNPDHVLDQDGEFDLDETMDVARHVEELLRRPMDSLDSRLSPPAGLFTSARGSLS
Description: as §3, §4

K-562 = assay: MTT cytotoxic assay, leukaemia K-562 cell line; format: cell-based; details: Homo sapiens, K562, read-out: (IC50 μM)±SD K-562
Description: as §1, §2

human leukaemia cells = tested on: human leukaemia cells; parameters: method as in earlier work; details: read-out: CC50, cytotoxic activity; cited from earlier work

T1 sequence (P40763 whole entry): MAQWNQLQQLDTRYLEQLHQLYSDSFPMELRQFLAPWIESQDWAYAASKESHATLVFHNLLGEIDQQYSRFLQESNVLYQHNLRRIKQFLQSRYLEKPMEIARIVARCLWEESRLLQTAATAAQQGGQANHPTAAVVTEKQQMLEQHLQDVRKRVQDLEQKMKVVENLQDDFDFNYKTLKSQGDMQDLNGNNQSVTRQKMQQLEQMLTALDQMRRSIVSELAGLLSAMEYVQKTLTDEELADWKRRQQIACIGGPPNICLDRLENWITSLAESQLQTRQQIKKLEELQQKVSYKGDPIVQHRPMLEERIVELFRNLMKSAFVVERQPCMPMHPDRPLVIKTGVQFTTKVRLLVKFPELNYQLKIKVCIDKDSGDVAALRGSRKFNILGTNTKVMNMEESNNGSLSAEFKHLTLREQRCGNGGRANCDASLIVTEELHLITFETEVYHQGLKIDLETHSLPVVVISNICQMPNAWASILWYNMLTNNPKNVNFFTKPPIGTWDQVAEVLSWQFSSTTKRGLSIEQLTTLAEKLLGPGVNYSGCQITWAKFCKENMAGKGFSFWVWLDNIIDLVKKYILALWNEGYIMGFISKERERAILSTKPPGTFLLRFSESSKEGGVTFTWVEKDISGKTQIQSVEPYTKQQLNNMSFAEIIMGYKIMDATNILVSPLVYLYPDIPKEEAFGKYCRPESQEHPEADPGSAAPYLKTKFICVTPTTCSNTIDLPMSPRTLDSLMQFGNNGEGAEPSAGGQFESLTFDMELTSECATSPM

Row | IC50 (in vitro) [µM] | melting point [°C] | IC50 (STAT3 [3]; K562 cells) [µM] | IC50 (STAT5a; K562 cells) [µM] | IC50 (STAT3 [3]; MCF7 cells) [µM] | IC50 (STAT5a; MCF7 cells) [µM] | Compound | EC50 (STAT3 [1]) [µM] | EC50 (STAT3 [2]) [µM] | IC50 (MCF-7) [µM] | IC50 (HT-29) [µM] | IC50 (K-562) [µM] | CC50 (human leukaemia cells) [µM]
2 | 29.2 to 40.1 | 183 to 185 | 160 ± 4.59 | 116 ± 4.13 | – | – | COc1ccc(/C=C/C(=O)c2ccc(NC(=O)CSc3nc(-c4ccc(OC)cc4)cc(-c4ccc([N+](=O)[O-])cc4)n3)cc2)cc1 [Compound 9d, (ZE)-2-[4-(4-Methoxyphenyl)-6-(4-nitrophenyl)pyrimidin-2-ylthio]-N-{4-[3-(4-methoxyphenyl)acryloyl]phenyl}acetamide] | – | – | 14.2 ± 0.74 | 25.9 ± 1.67 | 0.77 ± 0.03 | –
3 | – | – | – | – | – | – | Cc1cccc(Nc2ccccc2C(=O)Nc2ccc(C(=O)/C=C/c3ccc(Cl)cc3)cc2)c1C [chloro-derivative of compound X] | – | – | – | – | – | 2.17
4 | 29.2 to 40.1 | 221 to 223 | – | – | 149 ± 3.81 | 63.2 ± 1.57 | COc1cc(/C=C/C(=O)c2ccc(NC(=O)CSc3nc(-c4ccc(Cl)cc4)cc(-c4ccc(OCCCl)cc4)n3)cc2)cc(OC)c1OC [Compound 9r] | – | – | 1.37 ± 0.07 | 4.74 ± 0.27 | 10.7 ± 0.77 | –
5 | 29.2 to 40.1 | 254 to 256 | 245 ± 11.1 | 77.7 ± 2.91 | – | – | COc1ccc(-c2cc(-c3ccc([N+](=O)[O-])cc3)nc(SCC(=O)Nc3ccc(C(=O)/C=C/c4cc(OC)c(OC)c(OC)c4)cc3)n2)cc1 [Compound 9f, (ZE)-2-[4-(4-Methoxyphenyl)-6-(4-nitrophenyl)pyrimidin-2-ylthio]-N-{4-[3-(3,4,5-trimethoxyphenyl)acryloyl]phenyl}acetamide] | – | – | 5.77 ± 0.22 | 9.41 ± 0.43 | 1.37 ± 0.03 | –
6 | – | – | – | – | – | – | Cc1cccc(Nc2ccccc2C(=O)Nc2ccc(C(=O)/C=C/c3ccc(N(C)C)cc3)cc2)c1C [dimethylamino-derivative of compound X] | – | – | – | – | – | 2.06
7 | 17.1 | 226 to 228 | – | – | 243 ± 9.24 | 83.8 ± 3.28 | COc1ccc(/C=C/C(=O)c2ccc(NC(=O)CSc3nc(-c4ccc(C)cc4)cc(-c4ccc(OC)cc4)n3)cc2)cc1 [Compound 9a, (ZE)-2-[4-(4-Methoxyphenyl)-6-p-tolylpyrimidin-2-ylthio]-N-{4-[3-(4 methoxyphenyl)acryloyl]phenyl}acetamide] | – | – | 3.56 ± 0.14 | 2.2 ± 0.04 | 18.4 ± 0.76 | –
8 | – | – | 65.5 ± 2.55 | 69.8 ± 1.82 | 79.5 ± 2.17 | 54.4 ± 1.09 | C1=C/COCc2cc(ccc2OCCN2CCCC2)Nc2nccc(n2)-c2cccc(c2)COC/1 [Pacritinib, reference compound] | – | – | – | – | – | –
9 | 29.2 to 40.1 | 147 to 149 | 113 ± 3.22 | 50.7 ± 1.26 | – | – | COc1ccc(/C=C/C(=O)c2ccc(NC(=O)CSc3nc(-c4ccc(Cl)cc4)cc(-c4ccc([N+](=O)[O-])cc4)n3)cc2)cc1OC [Compound 9n, (ZE)-2-[4-(4-Chlorophenyl)-6-(4-nitrophenyl)pyrimidin-2-ylthio]-N-{4-[3-(3,4-dimethoxyphenyl)acryloyl]phenyl}acetamide] | – | – | 17.4 ± 0.75 | 2.1 ± 0.06 | 1.05 ± 0.02 | –
